For test [1], the system named is CHO-K1 cells. In words: Fluorescent microscopy assessment of CPP internalisation. As to conditions: 10 μM, CM and SF (FIGS. 30-32). The class given is cell-based, Chinese hamster. The method, then: (§1) CHO-K1 cells are seeded at 70,000 cells/slide chamber, and bEnd.3 cells are seeded at 40,000 cells/slide chamber. Cells are cultured for 24 h at 37° C. in 5% CO2, washed with PBS 1×, and FITC-labeled peptide (10 uM) is added to cells in 10% FBS (CM).
(§2) Alternatively, cells in serum-free (SF) medium are incubated for 1 h at 37° C., washed twice in PBS, fixed in 10% formaladehyde/PBS (15 min at RT), washed as before, incubated in, 300 nM DAPI/PBS solution for […] at RT, washed as before, and mounted onto slides.

In test [2] the test system is CHO-K1 cells. Briefly: Flow cytometry analysis of FITC-labelled peptide cell binding/uptake. It counts as cell-based, Chinese hamster. As to conditions: for cellular uptake into CHO-K1: 37° C. and 4° C. (FIG. 34); for cellular uptake into CHO-K1 cells measured using FITC: FIG. 36. The procedure:
(§3) CHO-K1 and bEnd.3 cells were seeded in 6-well plates at 5×10^5 cells/well in culture medium and incubated for 24 h at 37° C. in 5% CO2. Culture media was aspirated, and cells washed once with PBS to remove debris. Then, 1 mL of media containing 10 or 20 μM of FITC-peptide was added to wells, and plates were incubated for 1 h at 37° C. in 5% CO2. The cells were washed twice with 1×PBS, and 1 mL of 0.25% trypsin/EDTA added per well, and incubated at 37° C. for 4 min. Reactions were stopped by dilution of trypsin with 2 mL complete media. Cells were dislodged by gentle titration and transferred to flow cytometry tubes, washed twice with FACS buffer (0.5% BSA/0.01% NaN3/PBS), collected by centrifugation for 4 min at 1500 rpm, and resuspended in 0.3 mL fixing buffer solution (1% formaldehyde in PBS). Cells were filtered through gauze before reading on BD LSRII flow cytometer.
(§4) Cells were seeded in 6-well plates and then grown for 24 hours before peptide was added for 1 hour at 37° C. Cells were harvested via trypsinization, and then assayed for peptide internalization/binding by flow cytometry.
(§5) The flow cytometry procedure was initially optimized using fluorophore-labelled TAT-PYC38. Subsequently, FITC-labelled peptides from the Phase 1-Pilot and Phase 2-CPP screens were assessed at 10 μM concentrations for internalization using CHO and bEnd3 cells. Peptides that scored as positive in the cell binding/internalization assay were subjected to further analysis using different temperatures and cell lines to determine cell selectivity. The cell-binding/uptake activity of pure (>85% purity) and Pepset (purity ranges from 40-80%) peptides was also compared to determine whether peptide purity affected CPP activity.
(In general: A flow cytometer gives signals particle by particle.)

Test [3] deals with bEnd.3 mouse brain endothelial cells. In words: Fluorescent microscopy assessment of CPP internalisation. The conditions noted are these: 10 μM, CM and SF (FIGS. 25-28). The class given is cell-based. The method, then: as §1, §2
For a further test, the system named is bEnd.3 cells. In words: Flow cytometry analysis of FITC-labelled peptide cell binding/uptake. The class given is cell-based, mouse. As to conditions: FIG. 36. The procedure:
as §3, §4, §5

In a further test the test system is CHO or bEnd.3 cells. Briefly: Live confocal microscopy screen for cell internalization, cell line not specified per result. The class given is cell-based. As to conditions: for cellular uptake by confocal microscopy: 10 μM (FIG. 20). The method, then: (§6) bEnd.3 and CHO-K1 cells were seeded at 3×10^4/well and 5×10^4/well respectively, on 8-well Lab-Tek H chambered coverglass slides. Slides were incubated for 24 h prior to analysis at 37° C. at 5% CO2. Wells were washed twice with medium containing 1% FBS, and 5-10 μM FITC-labeled peptide in 1% FBS media was added to wells, and cells were imaged at 30 and 60 minutes later.
(§7) Briefly, bEnd.3 and CHO cells were seeded at subconfluent density (˜50%) on 8-well chambered coverglasses, incubated for 24 hrs, washed with culture medium containing 1% FBS and then incubated with 5-30 μM of labelled peptide for 1 hr in culture media containing 1% FBS before being imaged using confocal microscopy.

Test [4] has as its system primary cortical neuronal cultures. Briefly: Glutamate excitotoxicity assay, neuroprotection by CPP-PYC36 fusions. The class given is cell-based. As to conditions: PYC36 alone, data not shown. The procedure:
Peptides ID 4052 (SEQ ID NO: 16; Table 10), Peptides ID 4052a (SEQ ID NO: 26; Table 10), and TAT peptide ([…]; SEQ ID NO: 28) were each produced as fusions to the neuroprotective peptide PYC36 ([…]; SEQ ID NO: 29) described in WO 2008/034161. The fusion peptides were assayed for their ability to confer survival on primary cortical neuronal cultures by glutamate excitotoxicity assay as described in Example of WO 2008/034161.

Test [5] deals with CHO-K1 cells. Briefly: Live confocal microscopy of FITC-labelled peptides. The conditions noted are these: 60 minutes (FIG. 18). The class given is cell-based, Chinese hamster. The method, then:
as §6, §7

Another test relates to cells. In words: Flow cytometry optimisation with FITC-labelled PYC38 (+/-TAT). It counts as cell-based. As to conditions: FITC-labelled peptide. The method, then: as §4, §5
The next test concerns endosome. As to conditions: Sugita et al. 2008; cited from earlier work.

As to 0045 (PFLKRVPACLRLRR) [compound 0045], the “internalisation into CHO-K1 cells, fluorescent microscopy” value (“internalisation into CHO-K1 cells” below) in the test with CHO-K1 cells [1] is “evidence for internalisation of the peptide into CHO-K1 cells”. In the test with CHO-K1 cells [2], the “cellular uptake into CHO-K1” value is given as “high uptake”. Besides, the “internalisation into bEnd.3 cells, fluorescent microscopy” value (“internalisation into bEnd.3 cells” for short) in [3] is recorded as “evidence for internalisation of the peptide into bEnd.3 cells”.

For 4052 (WGCCGRSSRRRRTR) [compound 4052], the “cellular uptake into CHO-K1 cells measured using FITC” value (from here on “cellular uptake into CHO-K1 cells”) in the test on CHO-K1 cells [2] is recorded as “high uptake”. Moreover, the “cellular uptake into bEnd.3 cells measured using FITC” value (from here on “cellular uptake into bEnd.3 cells”) with bEnd.3 cells is “high uptake”.

As to “5008 (PYSRPHVQLWYPNRESCRSLIRSLGP) [compound 5008]”, in the test with CHO-K1 cells [1], the “internalisation into CHO-K1 cells” value is reported as “evidence for internalisation of the peptide into CHO-K1 cells”. In the test with CHO-K1 cells [2], the “cellular uptake into CHO-K1 cells” value was “high uptake”. Moreover, the “internalisation into bEnd.3 cells” value in test [3] was “evidence for internalisation of the peptide into bEnd.3 cells”. The “cellular uptake into bEnd.3 cells” value with bEnd.3 cells was “high uptake”.

As to “9170 (RCGRASRCRVRWMRRRRI) [compound 9170]”, the “internalisation into CHO-K1 cells” value in the test with CHO-K1 cells [1] is reported as “evidence for internalisation of the peptide into CHO-K1 cells”. Also, in the test with CHO or bEnd.3 cells, the “cellular uptake by confocal microscopy” value is given as “evidence for cellular uptake”. In the test with CHO-K1 cells [2], the “cellular uptake into CHO-K1” value is “high uptake” and the “cellular uptake into CHO-K1 cells” value is reported as “high uptake”. Besides, the “internalisation into bEnd.3 cells” value in [3] is listed as “evidence for internalisation of the peptide into bEnd.3 cells”. For the same substance, the “cellular uptake into bEnd.3 cells” value with bEnd.3 cells was “high uptake”.

Take “GLQGRRRQGYQSIKP (GLQRRRQGYQSIKP) [PYC36, neuroprotective peptide described in WO 2008/034161]”: the “neuroprotective activity following glutamate induced neural damage” value in [4] was “negligible neuroprotective activity”.

Consider “RFRCGRRKWQIGS [Peptide ID 9072, arginine-rich TAT-like CPP from non-coding region]”, for which the “cellular uptake by confocal microscopy” value with CHO or bEnd.3 cells was “evidence for cellular uptake”. In addition, in the test on CHO-K1 cells [2] (10 μM, 37° C., vs PYC38-TAT positive control (FIG. 15)), the “uptake into CHO-K1 cells, flow cytometry curve” value was “largely overlaps with that for the positive control”.

With “WTISSRRRKVNRAC [Peptide ID 4063, arginine-rich TAT-like CPP from non-coding region]”, the “uptake into CHO-K1 cells by confocal microscopy” value in the test with CHO-K1 cells [5] (10 μM peptide) is “evidence of the uptake”; with CHO-K1 cells [5] (30 μM peptide), “uptake”.

In the case of “rhaplarGswrGqpqqGpqrrGqlGG [PYC38, reference compound]”, in the test with CHO or bEnd.3 cells (5-30 μM labelled peptide, 1 hr), the “uptake by confocal microscopy, control peptides” value is “no uptake”. For the same substance, the “level of cell binding/internalization, PYC38-TAT versus PYC38” value in the test with cells is reported as “significantly lower”. The “uptake into CHO-K1 cells by confocal microscopy” value in the test on CHO-K1 cells [5] (5 μM peptide) is reported as “no detectable evidence of uptake”.

Take “transferrin: named in cited endosome escape study”: the “efficiency of endosome escape” value in the test with endosome is recorded as “low”.

Source of the values: patent US9880151B2, “Method of determining, identifying or isolating cell-penetrating peptides” (Phylogica Limited, priority 2011, dated 2018).
